Test results from ChEMBL document CHEMBL3769388, “Optimization of a Dicarboxylic Series for in Vivo Inhibition of Citrate Transport by the Solute Carrier 13 (SLC13) Family” (J Med Chem, 2016).
Converted amounts (≈) assume the structure as drawn. The source made the active and inactive calls. The rule behind the calls is not given here.

Assays:
[1] = target: Na(+)/citrate cotransporter (Homo sapiens, UniProt Q86YT5); assay: Inhibition of NaCT in human hepatocytes assessed as [14C]-citrate uptake after 30 mins by scintillation counting method; type: cell-based, Hepatocyte
[2] = target: Na(+)/dicarboxylate cotransporter 3 (Homo sapiens, UniProt Q8WWT9); assay: Inhibition of NaDC3 (unknown origin) expressed in HEK293 cells assessed as inhibition of [14C]citrate uptake by microbeta plate reader analysis; type: cell-based
Na(+)/dicarboxylate cotransporter 3, sequence (Q8WWT9 whole entry): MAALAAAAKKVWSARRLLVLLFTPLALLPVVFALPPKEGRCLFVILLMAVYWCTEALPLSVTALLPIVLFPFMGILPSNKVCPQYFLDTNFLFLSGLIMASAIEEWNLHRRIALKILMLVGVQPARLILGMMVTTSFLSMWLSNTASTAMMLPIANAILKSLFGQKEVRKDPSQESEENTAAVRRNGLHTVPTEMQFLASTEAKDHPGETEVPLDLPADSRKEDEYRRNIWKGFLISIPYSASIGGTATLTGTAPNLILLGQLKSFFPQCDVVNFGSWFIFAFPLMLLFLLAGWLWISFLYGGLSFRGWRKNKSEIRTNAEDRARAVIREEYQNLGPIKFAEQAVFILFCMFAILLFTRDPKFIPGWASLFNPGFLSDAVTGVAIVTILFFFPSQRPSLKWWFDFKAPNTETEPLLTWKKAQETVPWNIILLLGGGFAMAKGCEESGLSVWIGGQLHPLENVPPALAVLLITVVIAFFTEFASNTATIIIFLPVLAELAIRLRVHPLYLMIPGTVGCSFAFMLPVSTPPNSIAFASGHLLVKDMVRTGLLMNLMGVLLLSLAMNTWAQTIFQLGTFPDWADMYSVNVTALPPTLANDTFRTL

[3] = Passive permeability in MDCK cells; type: ADME, cell-based, Canis lupus familiaris; settings: dog
[4] = target: Na(+)/citrate cotransporter (Mus musculus, UniProt Q67BT3); assay: Inhibition of NaCT in mouse hepatocytes assessed as [14C]-citrate uptake after 30 mins by scintillation counting method; type: cell-based, Hepatocyte
[5] = target: Na(+)/citrate cotransporter (Rattus norvegicus, UniProt Q8CJ44); assay: Inhibition of NaCT in rat hepatocytes assessed as [14C]-citrate uptake after 30 mins by scintillation counting method; type: cell-based, Hepatocyte
Na(+)/citrate cotransporter (Rattus norvegicus, UniProt Q8CJ44), sequence (Q8CJ44 whole entry): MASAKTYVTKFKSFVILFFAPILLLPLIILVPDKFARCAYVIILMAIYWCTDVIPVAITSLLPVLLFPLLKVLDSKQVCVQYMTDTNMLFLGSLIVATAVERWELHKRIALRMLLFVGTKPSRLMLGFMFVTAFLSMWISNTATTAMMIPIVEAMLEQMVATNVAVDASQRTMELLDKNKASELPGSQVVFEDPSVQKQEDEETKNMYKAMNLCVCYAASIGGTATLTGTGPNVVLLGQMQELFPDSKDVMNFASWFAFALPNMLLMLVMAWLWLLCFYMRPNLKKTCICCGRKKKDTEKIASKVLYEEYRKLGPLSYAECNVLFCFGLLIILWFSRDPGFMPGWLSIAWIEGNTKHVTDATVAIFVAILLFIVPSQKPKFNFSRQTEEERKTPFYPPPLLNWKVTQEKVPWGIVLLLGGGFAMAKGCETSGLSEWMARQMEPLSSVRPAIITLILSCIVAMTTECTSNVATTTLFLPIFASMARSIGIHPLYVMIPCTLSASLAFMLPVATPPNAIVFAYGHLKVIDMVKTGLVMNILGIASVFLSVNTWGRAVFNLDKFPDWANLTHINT

[6] = Clearance in rat hepatocytes assessed per 10^6 cells; type: ADME, cell-based, Hepatocyte; settings: read-out: CLH
[7] = Fraction unbound in Wistar Han rat by equilibrium dialysis method; type: ADME
[8] = Renal clearance in Wistar Han rat at 1 mg/kg, iv by LC-MS/MS analysis; type: ADME, organism-based, Kidney; settings: in vivo
[9] = Volume of distribution at steady state in Wistar Han rat at 1 mg/kg, iv by LC-MS/MS analysis; type: ADME, organism-based; settings: in vivo, read-out: Vdss
[10] = AUC(0 to t) in Wistar Han rat at 5 mg/kg, po by LC-MS/MS analysis; type: ADME, organism-based; settings: in vivo
Mus musculus [11] = assay: Decrease in fasting glucose levels in DIO C57/B6 mouse model in basal portion at 44 mg/kg/hr for 90 mins; type: functional, organism-based
Mus musculus [12] = assay: Effect on glucose infusion rate in DIO C57/B6 mouse during hyperinsulinemic-euglycemic clamp at 44 mg/kg/hr for 90 mins; type: functional, organism-based
Rattus norvegicus [13] = organism: Rattus norvegicus; assay: Increase in […][13C]-citrate levels in rat plasma measured over 140 to 150 mins by UPLC-MS/MS analysis; type: functional, organism-based
Rattus norvegicus [14] = organism: Rattus norvegicus; assay: Increase in [12C]-citrate levels in rat liver measured over 140 to 150 mins by UPLC-MS/MS analysis; type: functional, organism-based
Mus musculus [15] = assay: Increase in urinary calcium level in C57BL/6J mouse at 250 mg/kg, po measured after 7 hrs by UPLC-MS/MS analysis; type: functional, organism-based; settings: Urine
Cytochrome P450 1A2 = Cytochrome P450 1A2 (Homo sapiens, UniProt P05177); assay: Inhibition of CYP1A2 (unknown origin); type: ADME
Cytochrome P450 3A4 = Cytochrome P450 3A4 (Homo sapiens, UniProt P08684); assay: Inhibition of CYP3A4 (unknown origin); type: ADME
[16] = target: Amine oxidase [flavin-containing] A (Homo sapiens, UniProt P21397); assay: Inhibition of MAOA (unknown origin)
[17] = target: Mitogen-activated protein kinase 14 (Homo sapiens) (UniProt Q16539); assay: Inhibition of MAPK14/P38-alpha (unknown origin)
Mitogen-activated protein kinase 14 (Homo sapiens), sequence (Q16539 whole entry): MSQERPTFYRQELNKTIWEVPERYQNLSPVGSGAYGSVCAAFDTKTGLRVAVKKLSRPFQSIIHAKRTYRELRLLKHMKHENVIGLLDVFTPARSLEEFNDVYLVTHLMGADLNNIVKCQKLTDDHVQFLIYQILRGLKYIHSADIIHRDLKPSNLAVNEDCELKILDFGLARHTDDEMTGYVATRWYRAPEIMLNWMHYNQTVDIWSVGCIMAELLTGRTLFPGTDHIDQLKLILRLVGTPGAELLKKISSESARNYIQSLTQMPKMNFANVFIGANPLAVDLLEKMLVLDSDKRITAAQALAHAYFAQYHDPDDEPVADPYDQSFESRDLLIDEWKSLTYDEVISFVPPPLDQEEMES

Homo sapiens = organism: Homo sapiens; assay: Inhibition of PDE3A1 (unknown origin)
[18] = target: 3',5'-cyclic-AMP phosphodiesterase 4D (Homo sapiens) (UniProt Q08499); assay: Inhibition of PDE4D3 (unknown origin)
[19] = target: Voltage-gated L-type calcium channel (Homo sapiens, UniProt Q13936+Q13698+Q01668+O60840); assay: Inhibition of L type calcium channel (unknown origin); type: protein assay
[20] = target: Sodium-dependent dopamine transporter (Homo sapiens) (UniProt Q01959); assay: Inhibition of DAT (unknown origin)
[21] = target: Sodium-dependent phosphate transport protein 2A (Homo sapiens) (UniProt Q06495); assay: Inhibition of NaPiA2 (unknown origin)
[22] = target: Sodium-dependent phosphate transport protein 3 (Homo sapiens) (UniProt O00624); assay: Inhibition of NaPiA3 (unknown origin)
[23] = target: Sodium-dependent serotonin transporter (Homo sapiens) (UniProt P31645); assay: Inhibition of 5HTT (unknown origin)
[24] = target: Sodium channel protein type 5 subunit alpha (Homo sapiens, UniProt Q14524); assay: Inhibition of NaV1.5 (unknown origin)
[25] = target: Adenosine receptor A1 (Homo sapiens) (UniProt P30542); assay: Inhibition of ADORA1 (unknown origin)
[26] = target: Alpha-1A adrenergic receptor (Homo sapiens) (UniProt P35348); assay: Inhibition of ADRA1A (unknown origin)
[27] = target: Alpha-2A adrenergic receptor (Homo sapiens) (UniProt P08913); assay: Inhibition of ADRA2A (unknown origin)
[28] = target: Cannabinoid receptor 1 (Homo sapiens) (UniProt P21554); assay: Inhibition of CB1 (unknown origin)
[29] = target: D(2) dopamine receptor (Homo sapiens) (UniProt P14416); assay: Inhibition of D2 (unknown origin)
D(2) dopamine receptor (Homo sapiens), sequence (P14416 whole entry): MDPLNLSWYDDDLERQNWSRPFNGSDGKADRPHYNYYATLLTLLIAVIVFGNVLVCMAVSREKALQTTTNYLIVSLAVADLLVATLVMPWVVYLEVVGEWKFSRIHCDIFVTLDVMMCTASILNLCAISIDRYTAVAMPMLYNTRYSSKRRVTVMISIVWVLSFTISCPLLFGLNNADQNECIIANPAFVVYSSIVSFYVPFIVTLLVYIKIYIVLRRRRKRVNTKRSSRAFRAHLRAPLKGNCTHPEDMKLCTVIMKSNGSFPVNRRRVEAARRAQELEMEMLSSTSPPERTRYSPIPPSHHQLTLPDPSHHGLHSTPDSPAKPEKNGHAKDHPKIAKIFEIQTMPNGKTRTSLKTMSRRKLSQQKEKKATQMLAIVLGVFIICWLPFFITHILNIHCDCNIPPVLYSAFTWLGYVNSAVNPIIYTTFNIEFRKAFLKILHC

[30] = target: Endothelin-1 receptor (Homo sapiens) (UniProt P25101); assay: Inhibition of ETA (unknown origin)
[31] = target: Epidermal growth factor receptor (Homo sapiens) (UniProt P00533); assay: Inhibition of EGFR (unknown origin)
Epidermal growth factor receptor (Homo sapiens), sequence (P00533 whole entry): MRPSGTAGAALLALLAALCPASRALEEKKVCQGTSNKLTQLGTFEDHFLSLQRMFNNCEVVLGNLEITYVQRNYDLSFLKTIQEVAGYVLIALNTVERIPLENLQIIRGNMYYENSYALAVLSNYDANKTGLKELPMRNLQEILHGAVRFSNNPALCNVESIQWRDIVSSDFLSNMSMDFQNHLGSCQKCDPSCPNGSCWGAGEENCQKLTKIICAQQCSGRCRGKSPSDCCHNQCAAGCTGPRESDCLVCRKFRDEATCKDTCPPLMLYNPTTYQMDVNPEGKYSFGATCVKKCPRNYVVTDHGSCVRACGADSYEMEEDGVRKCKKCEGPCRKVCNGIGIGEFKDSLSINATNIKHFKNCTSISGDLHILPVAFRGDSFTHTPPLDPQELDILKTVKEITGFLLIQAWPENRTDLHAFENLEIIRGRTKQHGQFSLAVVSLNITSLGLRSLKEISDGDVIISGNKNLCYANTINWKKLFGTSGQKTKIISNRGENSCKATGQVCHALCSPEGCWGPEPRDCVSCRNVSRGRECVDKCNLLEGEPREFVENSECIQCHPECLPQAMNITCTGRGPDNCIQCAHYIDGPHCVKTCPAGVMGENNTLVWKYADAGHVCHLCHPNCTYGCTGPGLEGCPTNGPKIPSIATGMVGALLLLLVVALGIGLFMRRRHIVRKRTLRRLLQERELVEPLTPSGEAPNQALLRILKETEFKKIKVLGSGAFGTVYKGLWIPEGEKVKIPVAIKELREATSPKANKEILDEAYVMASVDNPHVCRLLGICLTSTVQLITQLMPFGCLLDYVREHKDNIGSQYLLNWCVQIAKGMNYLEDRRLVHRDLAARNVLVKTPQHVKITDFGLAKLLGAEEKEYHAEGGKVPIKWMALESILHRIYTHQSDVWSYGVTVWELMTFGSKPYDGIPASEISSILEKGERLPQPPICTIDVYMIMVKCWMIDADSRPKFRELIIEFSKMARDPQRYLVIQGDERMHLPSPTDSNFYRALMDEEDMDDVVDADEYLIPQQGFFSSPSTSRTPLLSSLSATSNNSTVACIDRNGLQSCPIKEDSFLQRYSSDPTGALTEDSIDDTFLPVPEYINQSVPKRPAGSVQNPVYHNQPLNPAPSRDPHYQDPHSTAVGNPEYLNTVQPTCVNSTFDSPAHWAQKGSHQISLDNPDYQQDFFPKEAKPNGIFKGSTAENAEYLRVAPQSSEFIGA

[32] = target: Gamma-aminobutyric acid receptor subunit alpha-1 (Homo sapiens) (UniProt P14867); assay: Inhibition of GABRA1 (unknown origin)
[33] = target: Glucocorticoid receptor (Homo sapiens) (UniProt P04150); assay: Inhibition of GR (unknown origin)
[34] = target: Histamine H1 receptor (Homo sapiens) (UniProt P35367); assay: Inhibition of H1 (unknown origin)
[35] = target: Histamine H3 receptor (Homo sapiens) (UniProt Q9Y5N1); assay: Inhibition of H3 (unknown origin)
[36] = target: Muscarinic acetylcholine receptor M2 (Homo sapiens) (UniProt P08172); assay: Inhibition of M2 (unknown origin)
[37] = target: Muscarinic acetylcholine receptor M3 (Homo sapiens) (UniProt P20309); assay: Inhibition of M3 (unknown origin)
[38] = target: Substance-P receptor (Homo sapiens) (UniProt P25103); assay: Inhibition of NK1 receptor (unknown origin)
Substance-P receptor (Homo sapiens), sequence (P25103 whole entry): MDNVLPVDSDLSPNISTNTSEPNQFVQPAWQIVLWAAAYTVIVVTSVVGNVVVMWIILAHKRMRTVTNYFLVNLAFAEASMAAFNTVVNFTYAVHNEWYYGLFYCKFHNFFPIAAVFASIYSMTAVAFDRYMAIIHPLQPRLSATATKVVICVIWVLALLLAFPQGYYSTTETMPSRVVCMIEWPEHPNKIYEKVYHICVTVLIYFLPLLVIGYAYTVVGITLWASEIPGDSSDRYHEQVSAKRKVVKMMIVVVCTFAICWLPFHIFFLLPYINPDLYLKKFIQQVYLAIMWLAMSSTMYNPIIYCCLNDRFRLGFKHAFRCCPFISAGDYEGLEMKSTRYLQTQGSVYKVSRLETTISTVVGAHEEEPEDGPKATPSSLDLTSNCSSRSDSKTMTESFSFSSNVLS

[39] = target: Peroxisome proliferator-activated receptor gamma (Homo sapiens) (UniProt P37231); assay: Inhibition of PPAR gamma (unknown origin)
[40] = target: 5-hydroxytryptamine receptor 1A (Homo sapiens) (UniProt P08908); assay: Inhibition of 5HT1A (unknown origin)
[41] = target: 5-hydroxytryptamine receptor 1B (Homo sapiens) (UniProt P28222); assay: Inhibition of 5HT1B (unknown origin)
[42] = target: 5-hydroxytryptamine receptor 2B (Homo sapiens) (UniProt P41595); assay: Inhibition of 5HT2B receptor (unknown origin)
[43] = target: 5-hydroxytryptamine receptor 3A (Homo sapiens) (UniProt P46098); assay: Inhibition of 5HT3 receptor (unknown origin)
[44] = target: Vascular endothelial growth factor receptor 2 (Homo sapiens) (UniProt P35968); assay: Inhibition of VEGFR2 (unknown origin)
Vascular endothelial growth factor receptor 2 (Homo sapiens), sequence (P35968 whole entry): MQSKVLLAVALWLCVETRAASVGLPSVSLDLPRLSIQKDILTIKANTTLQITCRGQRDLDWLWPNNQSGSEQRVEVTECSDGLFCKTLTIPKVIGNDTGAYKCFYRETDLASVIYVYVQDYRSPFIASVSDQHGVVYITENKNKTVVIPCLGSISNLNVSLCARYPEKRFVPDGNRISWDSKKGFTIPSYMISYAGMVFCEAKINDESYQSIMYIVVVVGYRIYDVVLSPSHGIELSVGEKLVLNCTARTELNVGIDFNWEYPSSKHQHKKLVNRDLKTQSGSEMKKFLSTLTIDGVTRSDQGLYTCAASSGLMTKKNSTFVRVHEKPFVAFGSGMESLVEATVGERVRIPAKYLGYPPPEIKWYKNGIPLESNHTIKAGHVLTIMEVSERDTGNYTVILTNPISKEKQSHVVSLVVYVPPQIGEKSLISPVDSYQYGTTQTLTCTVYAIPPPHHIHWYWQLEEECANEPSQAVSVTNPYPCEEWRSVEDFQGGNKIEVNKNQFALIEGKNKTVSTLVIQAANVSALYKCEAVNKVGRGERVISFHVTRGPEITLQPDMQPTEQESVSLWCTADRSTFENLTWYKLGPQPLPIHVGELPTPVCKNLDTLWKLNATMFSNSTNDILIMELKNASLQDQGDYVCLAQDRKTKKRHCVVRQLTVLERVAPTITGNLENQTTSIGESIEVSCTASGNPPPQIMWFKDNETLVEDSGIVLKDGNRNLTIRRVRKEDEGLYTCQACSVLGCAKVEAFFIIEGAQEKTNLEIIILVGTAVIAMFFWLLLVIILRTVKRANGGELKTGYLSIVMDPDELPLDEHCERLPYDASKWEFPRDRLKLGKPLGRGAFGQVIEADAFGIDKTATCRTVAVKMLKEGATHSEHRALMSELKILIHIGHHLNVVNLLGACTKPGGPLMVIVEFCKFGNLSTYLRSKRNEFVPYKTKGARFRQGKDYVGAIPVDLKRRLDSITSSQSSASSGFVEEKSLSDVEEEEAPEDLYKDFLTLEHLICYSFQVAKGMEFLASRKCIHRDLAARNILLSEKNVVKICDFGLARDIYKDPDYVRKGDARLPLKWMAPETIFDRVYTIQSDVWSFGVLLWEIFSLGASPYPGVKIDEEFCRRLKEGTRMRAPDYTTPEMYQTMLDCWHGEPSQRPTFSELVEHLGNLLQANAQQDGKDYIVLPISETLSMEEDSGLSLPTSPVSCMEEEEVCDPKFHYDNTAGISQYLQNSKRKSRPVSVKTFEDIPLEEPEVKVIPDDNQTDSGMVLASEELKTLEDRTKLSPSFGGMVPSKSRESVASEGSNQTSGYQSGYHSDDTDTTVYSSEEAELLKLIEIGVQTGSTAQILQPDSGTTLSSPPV

[45] = Thermodynamic solubility of compound in aqueous solution at pH 6.5; type: physicochemical; settings: read-out: Therm_solubility

Q: Which IC50 [1] does the source give for `COc1ncc(C)cc1CC[C@@](O)(CC(=O)O)C(=O)O` here?
A: 740 nM

Q: What about the IC50 ([2]; read-out: IC50) of the same compound?
A: 14100 nM

Q: What about the IC50 ([2]; read-out: pIC50 (converted)) of the same compound?
A: 10000 nM

Q: What about the Papp [3] of the same compound?
A: 0.3 ×10⁻⁶ cm/s

Q: What about the IC50 [4] of the same compound?
A: 210 nM

Q: What about the IC50 [5] of the same compound?
A: 120 nM

Q: And the hepatocyte CLint [6]?
A: < 6 µL/min/1e6 cells

Q: And the fraction unbound [7]?
A: 0.135

Q: And the CL renal [8]?
A: 4.4 mL/min/kg

Q: And the Vd [9]?
A: 0.54 L/kg

Q: And the AUC(0-t) [10]?
A: 4890 ng·h/mL

Q: What about the inhibition (Mus musculus [11]) of the same compound?
A: Active

Q: And the Activity (Mus musculus [12])?
A: inactive

Q: And the Activity (Rattus norvegicus [13])?
A: Active

Q: And the Activity (Rattus norvegicus [14])?
A: Active

Q: What about the Activity (Mus musculus [15]) of the same compound?
A: Active

Q: What about the “inhibition (INH)” value (Cytochrome P450 1A2) of the same compound?
A: Not Active

Q: What about the “inhibition (INH)” value (Cytochrome P450 3A4) of the same compound?
A: Not Active

Q: And the “inhibition (INH)” value [16]?
A: Not Active

Q: And the inhibition [17]?
A: inactive

Q: What about the inhibition (Homo sapiens) of the same compound?
A: inactive

Q: And the inhibition [18]?
A: inactive

Q: What about the “inhibition (INH)” value [19] of the same compound?
A: Not Active

Q: What about the inhibition [20] of the same compound?
A: inactive

Q: And the inhibition [21]?
A: inactive

Q: What about the inhibition [22] of the same compound?
A: inactive

Q: What about the inhibition [23] of the same compound?
A: inactive

Q: What about the “inhibition (INH)” value [24] of the same compound?
A: Not Active

Q: What about the inhibition [25] of the same compound?
A: inactive

Q: And the inhibition [26]?
A: inactive

Q: What about the inhibition [27] of the same compound?
A: inactive

Q: And the inhibition [28]?
A: inactive

Q: And the inhibition [29]?
A: inactive

Q: What about the inhibition [30] of the same compound?
A: inactive

Q: And the inhibition [31]?
A: inactive

Q: What about the inhibition [32] of the same compound?
A: inactive

Q: What about the inhibition [33] of the same compound?
A: inactive

Q: What about the inhibition [34] of the same compound?
A: inactive

Q: What about the inhibition [35] of the same compound?
A: inactive

Q: What about the inhibition [36] of the same compound?
A: inactive

Q: And the inhibition [37]?
A: inactive

Q: What about the inhibition [38] of the same compound?
A: inactive

Q: What about the inhibition [39] of the same compound?
A: inactive

Q: What about the inhibition [40] of the same compound?
A: inactive

Q: What about the inhibition [41] of the same compound?
A: inactive

Q: And the inhibition [42]?
A: inactive

Q: And the inhibition [43]?
A: inactive

Q: And the inhibition [44]?
A: inactive

Q: And the solubility thermodynamic [45]?
A: 24 µM (≈ 6.8 µg/mL)
